Test results from ChEMBL document CHEMBL1201862, “PubChem BioAssay data set” (2004).
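Results reflect a 48-hour exposure of cells in 96-well plates to compound at five concentrations. The concentration for 50% growth inhibition is given as GI50.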 Calls of active or inactive are those of the source. Rule as the data show it: active = GI50 up to about 1.1 µM and inactive = higher.

What was measured:
Assay in all cases: NCI anticancer screen, dose series, 48 h
[1] = tested on: DMS-273
[2] = tested on: KM-20L2
[3] = tested on: SNB-78
[4] = tested on: OVCAR-3
[5] = tested on: SNB-75
[6] = tested on: KM12
[7] = tested on: U-251
[8] = tested on: UACC-62
[9] = tested on: Malme-3M
[10] = tested on: RPMI-8226
[11] = tested on: SR
[12] = tested on: SK-MEL-2
[13] = tested on: SF-295
[14] = tested on: DMS-114
[15] = tested on: K562
[16] = tested on: HOP-62
[17] = tested on: XF498
[18] = tested on: A498
[19] = tested on: HT-29
[20] = tested on: SN12C
[21] = tested on: SF-268
[22] = tested on: SK-MEL-5
[23] = tested on: NCI-H226
[24] = tested on: NCI-H460
[25] = tested on: NCI-H522
[26] = tested on: HCC 2998
[27] = tested on: EKVX
[28] = tested on: SK-OV-3
[29] = tested on: LXFL 529
[30] = tested on: OVCAR-4
[31] = tested on: RXF 631
[32] = tested on: COLO 205
[33] = tested on: IGROV-1
[34] = tested on: OVCAR-5
[35] = tested on: MOLT-4
[36] = tested on: SNB-19
[37] = tested on: HCT-116
[38] = tested on: DLD-1
[39] = tested on: OVCAR-8
[40] = tested on: SF-539
[41] = tested on: 786-0
[42] = tested on: HL-60
[43] = tested on: HCT-15
[44] = tested on: HOP-18
[45] = tested on: CCRF-CEM
[46] = tested on: UO-31
[47] = tested on: RXF 393
[48] = tested on: A549
[49] = tested on: CAKI-1
[50] = tested on: SK-MEL-28
[51] = tested on: ACHN
[52] = tested on: M19-MEL
[53] = tested on: LOX IMVI
[54] = tested on: TK-10
[55] = tested on: M14
[56] = tested on: UACC-257
[57] = tested on: MDA-MB-231
[58] = tested on: HOP-92
[59] = tested on: SW-620
[60] = tested on: Hs-578T
[61] = tested on: MDA-MB-435
[62] = tested on: BT-549
[63] = tested on: MCF7
[64] = tested on: MDA-N
[65] = tested on: NCI/ADR-RES
[66] = tested on: T47D
[67] = tested on: DU-145
[68] = tested on: PC-3
[69] = tested on: NCI-H23

Measured: GI50

CC1(O)CCC2(C#N)CCC1C2O (stereo unspecified)
> 100000 nM: [43]
inactive: [1] 94400 nM | [2] 62200 nM | [3] > 100000 nM | [4] > 100000 nM | [5] > 100000 nM | [6] > 100000 nM | [7] > 100000 nM | [8] > 100000 nM | [9] > 100000 nM | [10] 26500 nM | [11] 20300 nM | [12] > 100000 nM | [13] > 100000 nM | [14] 16200 nM | [15] > 100000 nM | [16] > 100000 nM | [17] > 100000 nM | [18] > 100000 nM | [19] > 100000 nM | [20] > 100000 nM | [21] > 100000 nM | [22] > 100000 nM | [23] > 100000 nM | [24] 43900 nM | [25] 50600 nM | [26] > 100000 nM | [27] > 100000 nM | [28] > 100000 nM | [29] > 100000 nM | [30] > 100000 nM | [31] > 100000 nM | [32] 33900 nM | [33] > 100000 nM | [34] > 100000 nM | [35] > 100000 nM | [36] > 100000 nM | [37] 43500 nM | [38] 34000 nM | [39] > 100000 nM | [40] > 100000 nM | [41] > 100000 nM | [42] > 100000 nM | [44] > 100000 nM | [45] 49000 nM | [46] > 100000 nM | [47] > 100000 nM | [48] > 100000 nM | [49] > 100000 nM | [50] > 100000 nM | [51] > 100000 nM | [52] > 100000 nM | [53] 23200 nM | [54] > 100000 nM | [55] > 100000 nM | [56] > 100000 nM

COC1C(C)OC(OC2CC(C)(O)Cc3cc4c(c(O)c32)C(=O)c2c(O)cc3c(c2C4=O)OC2OC3(C)C(O)C(N(C)C)C2O)C(OC)C1(C)OC (stereo unspecified)
inactive: [65] 2210 nM
8.49 nM: [43]
active: [1] 15 nM | [2] 29.9 nM | [57] 1.29 nM | [3] 28.2 nM | [58] 33.3 nM | [4] 5.16 nM | [5] 16.5 nM | [6] 5.27 nM | [7] 2.85 nM | [8] 16 nM | [59] 4.57 nM | [9] 56.1 nM | [10] 15 nM | [11] 3.85 nM | [12] 15.8 nM | [60] 0.0579 nM | [13] 4.7 nM | [15] 4.38 nM | [16] 52.7 nM | [61] 1.02 nM | [17] 16.5 nM | [18] 25.6 nM | [19] 24.3 nM | [62] 0.257 nM | [20] 37.8 nM | [21] 4.84 nM | [22] 23.7 nM | [23] 50.8 nM | [24] 3.45 nM | [25] 4.47 nM | [26] 34.2 nM | [27] 40.9 nM | [63] 33.1 nM | [28] 136 nM | [29] 31.8 nM | [30] 190 nM | [31] 155 nM | [32] 17.9 nM | [33] 19.7 nM | [64] 0.53 nM | [34] 62.8 nM | [35] 4.69 nM | [36] 3.78 nM | [37] 15 nM | [38] 119 nM | [39] 4.96 nM | [40] 3.48 nM | [66] 0.029 nM | [41] 86.1 nM | [42] 5.41 nM | [44] 110 nM | [67] 0.809 nM | [68] 0.204 nM | [45] 4.75 nM | [46] 411 nM | [47] 4.63 nM | [48] 4.98 nM | [69] 4.96 nM | [50] 5.57 nM | [53] 3.16 nM | [54] 5.27 nM | [55] 4.79 nM | [56] 5.53 nM
